Results published in patent publication US6261767A, “Method for the qualitative and quantitative detection of DNA damage” (Societe Francaise de Recherches et d'Investissements (SFRI), priority 1995, dated 2001).
Starred links: 1 amine or outer side, 2 acyl side, 3 side chain; linkers in the order of their positions; H or OH if unused. Positions of bridges follow the written chain, without caps; N, C: chain ends. Non-standard residues stand in square brackets, D forms with d. Residues, ends and D or L forms follow the SMILES beside them. Chains are numbered I, II in the order given. Actinocin(9to1) = Cc1c2oc3c(C)ccc(C(=O)[*:1])c3nc-2c(C(=O)[*:2])c(N)c1=O; NMeV = CN[C@H](C(=O)O)C(C)C; Sar = CNCC(=O)O

Columns and labels:
[1] = tested on: repair activity of extracts from HeLa cells; assay: modulation (inhibition) of the repair activity of cellular extracts from HeLa cells on damaged DNA; assay type: biochemical; settings: FIG. 9
Description: The invention also provides a process for measuring the effect of modulation and the inhibitive effect of the repair of at least one molecule, which comprises the following steps:
preparation of damaged DNA fixed on a sensitized support,
action of a composition comprising at least one cellular extract having a repair activity on this DNA, said extract containing markers, and conjointly the action of at least one molecule having the power of modulating the repair action,
direct or indirect revelation of the markers that may be incorporated in the DNA, in the case of repair, and
comparative reading relative to a control specimen.
d/ Repair in the presence of a cellular extract and of agents of known type, comprising for example for a volume of reaction medium (RM) of 50 μl:
In the course of the repair step, see FIG. 1D, the molecules for which it is sought to show a modulator effect of the repair can be added. These molecules are preferably diluted in water or in dimethylsulfoxide (DMSO).

[2] = tested on: DNA damage generated by hydrogen peroxide; assay: inhibition of / antioxidant relative activity (R.A.) against DNA damage by hydrogen peroxide; assay type: biochemical; settings: 10 μm metallic chelating agent
[3] = tested on: DNA damage generated by methylene blue; assay: antioxidant relative activity (R.A.) against DNA damage by photo-activated methylene blue; assay type: biochemical; settings: summary of the R.A. table
Experimental: b/ Methylene blue is known to liberate by photo-activation, one atom of oxygen. For the tests to follow, methylene blue was subjected to radiation with visible light for 20 minutes with two bulb lamps of 100 W, a distance between the lamps and the support plates of 30 cm and a concentration of methylene blue of 50 ng/ml. The step of repair of the damage is carried out according to the information indicated above, with the use of the same reaction medium RM. In the same fashion, the plates, after the action of the reaction medium RM are washed three times with the washing solution indicated above, and incubated 15 minutes with a chemiluminescent substrate ("Lumi-Phos 530"). […] For the second test, with methylene blue, the relative activity RA has been calculated of an antioxidant which is equal to: [formula] in which formula: control RLU corresponds to the value of the signal of methylene blue alone subjected to radiation, test RLU corresponds to the value of the signal of methylene blue subjected to […] radiation plus an antioxidant molecule, and reference RLU corresponds to the value of the signal of the antioxidant molecule alone.

With `COS(C)(=O)=O` [MMS, methylmethanesulfonate] the “effectiveness of damage as shown by the repair ratio (before vs after adsorption of DNA)” value (DNA (plasmid 2959 bp); MMS in contact with DNA before the adsorption step, FIG. 7) was “greater effectiveness of damage”.
For `Cc1c2oc3c(C)ccc(C(=O)N[C@@H]4C(=O)N[C@H](C(C)C)C(=O)N5CCC[C@H]5C(=O)N(C)CC(=O)N(C)[C@@H](C(C)C)C(=O)O[C@@H]4C)c3nc-2c(C(=O)N[C@@H]2C(=O)N[C@H](C(C)C)C(=O)N3CCC[C@H]3C(=O)N(C)CC(=O)N(C)[C@@H](C(C)C)C(=O)O[C@@H]2C)c(N)c1=O` [actinomycin D] (I: T[dV]P[Sar][NMeV] / II: T[dV]P[Sar][NMeV]; ester I:1-I:C, II:1-II:C; linker I:N-II:N via Actinocin(9to1)), the “inhibitor effect on the repair activity” value [1] was “dose- dependent inhibitor effect”.
For `COc1cccc2c1C(=O)c1c(O)c3c(c(O)c1C2=O)C[C@@](O)(C(=O)CO)C[C@@H]3O[C@H]1C[C@H](N)[C@H](O)[C@H](C)O1` [doxorubicine], the “inhibitor effect on the repair activity” value [1] was “dose- dependent inhibitor effect”.
With `OO` [hydrogen peroxide] the “quantity for which the maximum ratio of repair is obtained” value (DNA (plasmid 2959 bp)) was 0.27 mM.
In the case of `CC(=O)N(O)CCCCCNC(=O)CCC(=O)N(O)CCCCCNC(=O)CCC(=O)N(O)CCCCCN` [mesylate deferroxamine], the “inhibition of the effects of hydrogen peroxide (production of DNA damage)” value [2] is reported as “inhibits totally”.
With `CCn1cc(C(=O)O)c(=O)c2ccc(C)nc21` [nalidixic acid] the “inhibitor effect on the repair activity” value [1] was “without effect”.
Vitamin A was tested, and the “antioxidant activity (in words)” value [3] was “no antioxidizing effect”.
